We go through three compounds from ChEMBL document CHEMBL1152560, “Substituted 2-arylbenzothiazoles as kinase inhibitors: hit-to-lead optimization” (Bioorg Med Chem, 2009).

Structures are written as SMILES.

The target in test [1] is Fibroblast growth factor receptor 2 (Homo sapiens) (UniProt P21802). Description: Residual activity of FGFR2 at 1 uM by microplate scintillation counting.
The target in test [2] is Focal adhesion kinase 1 (Homo sapiens) (UniProt Q05397). Description: Residual activity of FAK at 10 uM by microplate scintillation counting.
Test [3] concerns the target BDNF/NT-3 growth factors receptor (Homo sapiens) (UniProt Q16620). Description: Residual activity of TRK-B at 0.1 uM by microplate scintillation counting.
Test [4] has as its target Protein kinase C delta type (Homo sapiens) (UniProt Q05655). Description: Residual activity of PKCdelta at 1 uM by microplate scintillation counting.
Test [5] has as its target T1, Ephrin type-A receptor 3 (Homo sapiens) (UniProt P29320).
T1 sequence (whole entry): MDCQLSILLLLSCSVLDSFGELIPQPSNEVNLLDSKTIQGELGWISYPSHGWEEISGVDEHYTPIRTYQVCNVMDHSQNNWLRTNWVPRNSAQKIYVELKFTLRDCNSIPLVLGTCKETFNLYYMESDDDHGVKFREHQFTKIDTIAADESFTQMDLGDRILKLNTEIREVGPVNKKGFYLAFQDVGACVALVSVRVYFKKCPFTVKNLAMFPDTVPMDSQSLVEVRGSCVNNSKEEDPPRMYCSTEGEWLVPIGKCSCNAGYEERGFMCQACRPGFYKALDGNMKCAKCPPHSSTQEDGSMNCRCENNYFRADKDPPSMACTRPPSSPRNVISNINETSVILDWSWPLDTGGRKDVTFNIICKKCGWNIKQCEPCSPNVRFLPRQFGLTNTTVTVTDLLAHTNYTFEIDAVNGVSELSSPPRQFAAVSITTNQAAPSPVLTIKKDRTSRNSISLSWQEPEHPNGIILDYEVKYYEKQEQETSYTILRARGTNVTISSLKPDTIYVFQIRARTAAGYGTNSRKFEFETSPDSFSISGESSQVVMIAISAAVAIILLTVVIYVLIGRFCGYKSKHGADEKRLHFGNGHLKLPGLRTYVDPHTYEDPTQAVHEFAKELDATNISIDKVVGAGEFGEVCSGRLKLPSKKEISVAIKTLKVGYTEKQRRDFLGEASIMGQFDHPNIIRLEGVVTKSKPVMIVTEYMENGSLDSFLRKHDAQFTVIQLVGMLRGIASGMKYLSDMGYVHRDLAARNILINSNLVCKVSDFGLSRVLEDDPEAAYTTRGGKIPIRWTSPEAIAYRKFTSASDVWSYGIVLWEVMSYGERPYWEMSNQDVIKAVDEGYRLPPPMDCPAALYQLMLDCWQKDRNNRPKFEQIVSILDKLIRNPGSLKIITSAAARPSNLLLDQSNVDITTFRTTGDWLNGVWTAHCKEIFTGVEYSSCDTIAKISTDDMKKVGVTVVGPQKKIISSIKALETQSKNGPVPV
Description: Residual activity of EPHA3 at 0.1 uM by microplate scintillation counting.

For test [6], the target named is Serine/threonine-protein kinase PAK 4 (Homo sapiens) (UniProt O96013). The experiment in a line: Residual activity of PAK4 at 10 uM by microplate scintillation counting.
Serine/threonine-protein kinase PAK 4 (Homo sapiens), sequence (O96013 whole entry, looked up): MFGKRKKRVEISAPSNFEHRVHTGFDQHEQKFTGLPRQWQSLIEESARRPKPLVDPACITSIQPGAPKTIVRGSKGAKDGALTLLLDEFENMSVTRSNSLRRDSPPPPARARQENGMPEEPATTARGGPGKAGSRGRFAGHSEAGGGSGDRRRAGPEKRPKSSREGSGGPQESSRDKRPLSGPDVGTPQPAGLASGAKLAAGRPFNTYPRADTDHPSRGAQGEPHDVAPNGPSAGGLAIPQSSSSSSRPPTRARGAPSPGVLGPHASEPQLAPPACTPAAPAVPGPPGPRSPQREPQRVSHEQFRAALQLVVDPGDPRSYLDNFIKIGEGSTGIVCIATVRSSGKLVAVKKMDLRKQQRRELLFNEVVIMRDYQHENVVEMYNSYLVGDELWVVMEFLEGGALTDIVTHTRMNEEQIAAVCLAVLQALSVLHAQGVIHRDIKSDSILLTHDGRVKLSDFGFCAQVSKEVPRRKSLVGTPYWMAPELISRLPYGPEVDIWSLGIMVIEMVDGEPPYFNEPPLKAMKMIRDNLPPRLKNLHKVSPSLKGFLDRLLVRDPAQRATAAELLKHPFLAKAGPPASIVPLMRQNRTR
Test [7] has as its target Cyclin-dependent kinase 5/CDK5 activator 1 (Homo sapiens) (UniProt Q00535+Q15078). Description: Residual activity of CDK5/p25NCK at 10 uM by microplate scintillation counting. The format is protein-complex assay.
The target of test [8] is T2, Interleukin-1 receptor-associated kinase 4 (Homo sapiens) (UniProt Q9NWZ3).
T2 sequence (whole entry): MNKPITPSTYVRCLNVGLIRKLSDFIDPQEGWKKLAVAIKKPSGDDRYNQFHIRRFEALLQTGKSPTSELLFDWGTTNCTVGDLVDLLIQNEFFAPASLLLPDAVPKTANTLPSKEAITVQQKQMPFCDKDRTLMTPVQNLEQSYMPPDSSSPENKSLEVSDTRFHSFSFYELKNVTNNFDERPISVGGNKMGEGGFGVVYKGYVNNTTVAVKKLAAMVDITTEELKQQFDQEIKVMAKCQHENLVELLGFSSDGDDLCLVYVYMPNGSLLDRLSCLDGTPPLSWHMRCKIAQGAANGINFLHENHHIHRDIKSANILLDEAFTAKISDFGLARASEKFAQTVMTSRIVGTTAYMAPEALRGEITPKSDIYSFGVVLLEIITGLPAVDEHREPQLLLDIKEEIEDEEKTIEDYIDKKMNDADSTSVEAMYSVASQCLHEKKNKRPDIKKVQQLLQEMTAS
The experiment in a line: Residual activity of IRAK4 at 1 uM by microplate scintillation counting.

In test [9] the target is Aurora kinase B (Homo sapiens, UniProt Q96GD4). The experiment in a line: Residual activity of Aurora-B at 0.1 uM by microplate scintillation counting.
Aurora kinase B, sequence (Q96GD4 whole entry): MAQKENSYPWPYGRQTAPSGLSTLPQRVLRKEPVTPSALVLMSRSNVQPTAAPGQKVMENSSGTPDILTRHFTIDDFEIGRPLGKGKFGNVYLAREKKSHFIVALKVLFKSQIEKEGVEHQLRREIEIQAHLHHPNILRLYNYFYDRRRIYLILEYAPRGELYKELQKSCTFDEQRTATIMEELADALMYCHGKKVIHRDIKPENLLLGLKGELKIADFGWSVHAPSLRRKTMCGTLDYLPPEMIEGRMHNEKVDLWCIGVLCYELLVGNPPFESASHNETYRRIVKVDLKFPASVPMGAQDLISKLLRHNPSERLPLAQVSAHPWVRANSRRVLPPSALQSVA
Test [10] addresses Tyrosine-protein kinase Blk (Homo sapiens) (UniProt P51451). Description: Residual activity of BLK at 0.1 uM by microplate scintillation counting.
Test [11] deals with Serine/threonine-protein kinase 24 (Homo sapiens) (UniProt Q9Y6E0). The experiment in a line: Residual activity of MST3 at 1 uM by microplate scintillation counting.
Serine/threonine-protein kinase 24 (Homo sapiens), sequence (Q9Y6E0 whole entry, looked up): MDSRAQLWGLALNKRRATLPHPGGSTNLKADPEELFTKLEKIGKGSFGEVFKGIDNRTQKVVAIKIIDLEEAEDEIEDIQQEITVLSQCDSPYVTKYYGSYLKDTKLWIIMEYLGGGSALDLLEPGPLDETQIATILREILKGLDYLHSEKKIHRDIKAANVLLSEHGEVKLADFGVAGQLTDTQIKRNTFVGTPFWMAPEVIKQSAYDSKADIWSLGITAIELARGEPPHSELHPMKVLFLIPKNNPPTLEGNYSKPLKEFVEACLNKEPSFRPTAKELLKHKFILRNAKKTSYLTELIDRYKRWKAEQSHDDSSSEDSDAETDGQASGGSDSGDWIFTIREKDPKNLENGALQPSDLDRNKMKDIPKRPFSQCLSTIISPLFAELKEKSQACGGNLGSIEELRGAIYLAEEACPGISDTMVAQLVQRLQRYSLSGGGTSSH
The target of test [12] is Serine/threonine-protein kinase 33 (Homo sapiens) (UniProt Q9BYT3). Description: Residual activity of STK33 at 1 uM by microplate scintillation counting.
Serine/threonine-protein kinase 33 (Homo sapiens), sequence (Q9BYT3 whole entry, looked up): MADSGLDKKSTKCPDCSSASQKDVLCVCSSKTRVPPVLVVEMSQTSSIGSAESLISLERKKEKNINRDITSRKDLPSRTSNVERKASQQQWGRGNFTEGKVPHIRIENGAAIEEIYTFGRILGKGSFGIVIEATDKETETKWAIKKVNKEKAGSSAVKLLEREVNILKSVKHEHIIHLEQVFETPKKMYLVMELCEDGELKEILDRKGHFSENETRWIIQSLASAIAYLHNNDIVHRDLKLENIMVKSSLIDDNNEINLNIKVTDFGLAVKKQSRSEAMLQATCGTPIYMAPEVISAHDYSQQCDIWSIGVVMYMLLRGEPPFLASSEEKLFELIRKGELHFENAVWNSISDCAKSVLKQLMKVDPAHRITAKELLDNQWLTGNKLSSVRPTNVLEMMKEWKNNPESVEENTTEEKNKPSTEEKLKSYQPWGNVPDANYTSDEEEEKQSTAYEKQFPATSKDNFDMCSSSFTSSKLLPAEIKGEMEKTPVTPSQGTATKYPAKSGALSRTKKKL
In test [13] the target is T3, Serine/threonine-protein kinase BRSK1 (Homo sapiens) (UniProt Q8TDC3).
T3 sequence (whole entry): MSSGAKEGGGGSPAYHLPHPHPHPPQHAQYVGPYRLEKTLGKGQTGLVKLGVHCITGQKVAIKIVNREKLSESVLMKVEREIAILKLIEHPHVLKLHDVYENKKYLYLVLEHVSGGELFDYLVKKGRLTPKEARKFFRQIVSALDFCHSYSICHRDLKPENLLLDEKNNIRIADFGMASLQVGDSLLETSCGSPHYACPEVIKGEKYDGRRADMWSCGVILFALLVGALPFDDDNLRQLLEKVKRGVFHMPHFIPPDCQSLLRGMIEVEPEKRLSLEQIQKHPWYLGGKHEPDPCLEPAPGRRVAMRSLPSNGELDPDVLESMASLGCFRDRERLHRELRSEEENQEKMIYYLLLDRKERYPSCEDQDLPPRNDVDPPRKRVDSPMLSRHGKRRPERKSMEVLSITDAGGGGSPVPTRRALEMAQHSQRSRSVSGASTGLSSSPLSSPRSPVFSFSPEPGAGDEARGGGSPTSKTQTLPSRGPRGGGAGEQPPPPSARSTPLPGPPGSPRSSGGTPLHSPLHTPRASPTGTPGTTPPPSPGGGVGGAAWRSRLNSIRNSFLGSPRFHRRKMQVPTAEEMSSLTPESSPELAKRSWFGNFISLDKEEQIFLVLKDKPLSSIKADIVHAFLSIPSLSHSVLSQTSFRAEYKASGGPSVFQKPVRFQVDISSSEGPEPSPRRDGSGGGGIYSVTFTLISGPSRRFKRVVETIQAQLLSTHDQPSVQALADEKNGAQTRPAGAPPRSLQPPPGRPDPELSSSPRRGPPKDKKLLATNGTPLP
The experiment in a line: Residual activity of BRSK1 at 10 uM by microplate scintillation counting.

Fibroblast growth factor receptor 2 (Homo sapiens), sequence (P21802 22-821 limits assumed): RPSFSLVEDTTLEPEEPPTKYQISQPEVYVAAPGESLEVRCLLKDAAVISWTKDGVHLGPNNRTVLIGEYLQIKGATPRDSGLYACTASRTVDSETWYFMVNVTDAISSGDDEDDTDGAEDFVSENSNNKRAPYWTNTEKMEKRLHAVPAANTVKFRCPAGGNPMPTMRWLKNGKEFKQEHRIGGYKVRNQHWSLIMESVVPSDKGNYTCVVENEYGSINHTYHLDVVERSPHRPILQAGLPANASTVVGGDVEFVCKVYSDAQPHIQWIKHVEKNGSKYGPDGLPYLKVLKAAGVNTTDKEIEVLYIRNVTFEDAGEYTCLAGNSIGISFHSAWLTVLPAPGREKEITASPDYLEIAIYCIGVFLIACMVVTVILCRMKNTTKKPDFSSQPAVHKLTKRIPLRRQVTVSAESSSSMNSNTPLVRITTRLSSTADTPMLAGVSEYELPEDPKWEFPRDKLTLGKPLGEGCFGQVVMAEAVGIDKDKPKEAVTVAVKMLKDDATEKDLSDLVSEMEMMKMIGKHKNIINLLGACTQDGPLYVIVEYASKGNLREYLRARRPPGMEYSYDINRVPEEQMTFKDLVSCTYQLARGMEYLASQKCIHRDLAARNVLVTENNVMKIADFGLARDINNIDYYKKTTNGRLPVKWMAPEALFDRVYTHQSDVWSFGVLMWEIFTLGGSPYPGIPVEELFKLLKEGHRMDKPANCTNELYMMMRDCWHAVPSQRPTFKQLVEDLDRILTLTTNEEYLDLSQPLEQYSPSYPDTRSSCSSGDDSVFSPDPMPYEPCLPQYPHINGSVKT
BDNF/NT-3 growth factors receptor (Homo sapiens), sequence (Q16620 32-822 limits assumed): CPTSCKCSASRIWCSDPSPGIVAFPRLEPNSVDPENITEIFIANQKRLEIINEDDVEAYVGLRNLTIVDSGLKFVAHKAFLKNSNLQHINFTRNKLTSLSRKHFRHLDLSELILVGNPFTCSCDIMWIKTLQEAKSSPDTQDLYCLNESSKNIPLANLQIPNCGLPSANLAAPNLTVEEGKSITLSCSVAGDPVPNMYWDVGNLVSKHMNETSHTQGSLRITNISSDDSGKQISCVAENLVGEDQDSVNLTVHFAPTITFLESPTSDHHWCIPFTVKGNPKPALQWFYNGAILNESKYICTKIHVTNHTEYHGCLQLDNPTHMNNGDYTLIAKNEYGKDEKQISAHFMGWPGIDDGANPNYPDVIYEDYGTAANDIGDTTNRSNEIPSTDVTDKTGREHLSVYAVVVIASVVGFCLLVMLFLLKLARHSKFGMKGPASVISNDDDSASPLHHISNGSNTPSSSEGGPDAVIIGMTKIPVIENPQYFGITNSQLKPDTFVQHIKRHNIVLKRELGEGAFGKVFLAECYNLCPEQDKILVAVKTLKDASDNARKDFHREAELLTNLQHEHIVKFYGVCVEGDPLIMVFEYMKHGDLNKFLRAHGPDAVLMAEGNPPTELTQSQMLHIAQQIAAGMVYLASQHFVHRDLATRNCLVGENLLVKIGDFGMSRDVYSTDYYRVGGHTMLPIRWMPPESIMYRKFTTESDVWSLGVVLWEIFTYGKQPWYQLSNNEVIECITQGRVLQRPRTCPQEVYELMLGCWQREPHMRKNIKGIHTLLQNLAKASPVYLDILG
Tyrosine-protein kinase Blk (Homo sapiens), sequence (P51451 2-505 limits assumed): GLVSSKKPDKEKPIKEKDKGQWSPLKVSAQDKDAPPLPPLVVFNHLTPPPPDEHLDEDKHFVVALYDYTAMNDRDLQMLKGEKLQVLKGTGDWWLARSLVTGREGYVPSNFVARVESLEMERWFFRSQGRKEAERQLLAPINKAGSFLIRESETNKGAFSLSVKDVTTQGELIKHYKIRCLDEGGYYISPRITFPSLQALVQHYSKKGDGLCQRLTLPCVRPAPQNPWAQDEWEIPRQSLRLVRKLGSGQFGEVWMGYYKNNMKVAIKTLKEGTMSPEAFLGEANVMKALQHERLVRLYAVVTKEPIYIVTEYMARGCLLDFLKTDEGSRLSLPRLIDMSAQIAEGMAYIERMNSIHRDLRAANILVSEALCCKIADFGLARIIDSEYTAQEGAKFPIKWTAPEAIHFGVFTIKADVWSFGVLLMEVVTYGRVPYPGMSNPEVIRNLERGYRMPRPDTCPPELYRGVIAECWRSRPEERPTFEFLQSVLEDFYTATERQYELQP
Cyclin-dependent kinase 5/CDK5 activator 1 (Homo sapiens), sequence (Q00535 whole entry): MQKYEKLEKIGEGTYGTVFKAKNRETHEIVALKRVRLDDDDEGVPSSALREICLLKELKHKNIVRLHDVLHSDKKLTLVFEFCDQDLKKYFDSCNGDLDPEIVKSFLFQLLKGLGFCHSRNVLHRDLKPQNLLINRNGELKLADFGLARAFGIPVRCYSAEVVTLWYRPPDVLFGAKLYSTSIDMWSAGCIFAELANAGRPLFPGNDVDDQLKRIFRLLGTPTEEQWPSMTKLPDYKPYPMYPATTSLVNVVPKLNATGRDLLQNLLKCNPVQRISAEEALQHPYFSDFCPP
Cyclin-dependent kinase 5/CDK5 activator 1 (Homo sapiens), sequence (Q15078 99-307 partner limits assumed): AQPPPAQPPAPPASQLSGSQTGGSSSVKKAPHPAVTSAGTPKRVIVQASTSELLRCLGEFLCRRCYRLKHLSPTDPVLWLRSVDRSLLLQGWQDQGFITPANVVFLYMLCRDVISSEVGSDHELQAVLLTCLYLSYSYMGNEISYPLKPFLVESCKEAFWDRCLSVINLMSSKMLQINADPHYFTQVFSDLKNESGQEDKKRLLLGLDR

On to `COc1cc2c(Oc3ccc(-c4nc5ccccc5s4)cc3)ncnc2cc1OCCCN1CCN(C)CC1`, for which the residual activity in test [1] is 111%; in [2], 93%; in test [3], 82%; in test [4] it was 103%; in test [5], 92%; in [6], 55%. The residual activity in test [7] amounted to 112%; in test [8] it was 91%; in [9], 40%; in [10], 90%; in test [11] it was 118%; in test [12], 72%. Further, in [13], the residual activity was determined as 100%.

In the case of `COc1cc2c(Oc3ccc(-c4nc5ccccc5s4)cc3)ncnc2cc1OCCCN1CCCC1`, the residual activity in test [1] was 107%; in test [2], 93%; in [3], 97%; in test [4], 93%; in test [5], 104%; in test [6], 91%. In addition, the residual activity in [7] amounted to 117%; in test [8] it was 90%; in test [9] it was 48%; in test [10], 97%; in test [11] it was 113%; in test [12], 84%. Also, the residual activity in test [13] turned out to be 99%.

As for `COc1cc2c(Oc3ccc(-c4nc5ccccc5s4)cc3F)ncnc2cc1OCCCN1CCN(C)CC1`, the residual activity stood at 120% in [1]; 84% in test [2]; 94% in [3]; 94% in test [4]; 106% in [5]; 50% in test [6]. Also, the residual activity in test [7] was found to be 116%; in test [8] it was 97%; in test [9], 45%; in test [10], 89%; in [11] it was 122%; in [12] it was 107%. Besides, in [13], the residual activity came to 103%.
